In patent publication US9376418B2, “Substituted pyridine spleen tyrosine kinase (SYK) inhibitors” (Merck Sharp & Dohme Corp., priority 2012, dated 2016):

Molecular target: T1, recombinant human GST-SYK (Homo sapiens, UniProt P43405)
T1 construct: purchased Carna Biosciences 08-176
Assay: Homogeneous Time-Resolved Fluorescence (HTRF) assay for the recombinant human Syk enzyme
Format: biochemical
Details: HTRF assay, recombinant human GST-SYK; IC50 given as class symbols; read-out: rhSYK Activity
Method: Homogeneous Time-Resolved Fluorescence (HTRF) Assay for the Recombinant Human Syk Enzyme
A recombinant GST-hSYK fusion protein was used to measure potency of compounds to inhibit human Syk activity. The recombinant human GST-SYK (Carna Biosciences #08-176) ([…]) was incubated with various concentrations of the inhibitor diluted in DMSO (0.1% final concentration) for 10 minutes at room temperature in 15 mM Tris-HCl (pH 7.5), 0.01% tween 20, 2 mM DTT in 384 well plate format. To initiate the reaction the biotinylated substrate peptide (250 nM final concentration) that contains the phosphorylation site for Syk was added with magnesium (5 mM final concentration) and ATP (25 μM final concentration). Final volume of the reaction was 10 μL. Phosphorylation of the peptide was allowed to proceed for 45′ at room temperature. To quench the reaction and detect the phosphorylated product, 2 nM of a Europium-anti-phosphotyrosine antibody (Perkin Elmer #AD0161) and 70 nM SA-APC (Perkin-Elmer #CR130-100) were added together in 15 mM Tris pH 7.5, 40 mM EDTA, 0.01% tween 20. Final volume of the quenching solution was 10 μL. The resulting HTRF signal was measured after 30 minutes on an EnVision (Perkin-Elmer) reader using a time-resolved fluorescence protocol.

Row | SMILES | IC50
1 | COc1ccnc(Nc2cc(C)cc(-c3ccc(CCC(=O)O)cn3)c2)n1 [Example 2.26, 3-(6-{3-[(4-methoxypyrimidin-2-yl)amino]-5-methylphenyl}pyridin-3-yl)propanoic acid] | 100 to 1000 nM
2 | CCOC(=O)CCc1cccc(-c2cc(C)cc(Nc3nccc(C)n3)c2)n1 [Example 2.32, ethyl 3-(6-{3-methyl-5-[(4-methylpyrimidin-2-yl)amino]phenyl}pyridin-2-yl)propanoate] | 1000 to 10000 nM
3 | CCOC(=O)CCc1ccnc(-c2cc(C)cc(Nc3nccc(C)n3)c2)c1 [Example 2.33, ethyl 3-(2-{3-methyl-5-[(4-methylpyrimidin-2-yl)amino]phenyl}pyridin-4-yl)propanoate] | 100 to 1000 nM
4 | Cc1cc(Nc2nccc(C)n2)cc(-c2ccc(CCC(=O)O)cn2)c1 [Example 2.34, 3-(6-{3-methyl-5-[(4-methylpyrimidin-2-yl)amino]phenyl}pyridin-3-yl)propanoic acid] | 100 to 1000 nM
5 | Cc1cc(Nc2nccc(C)n2)cc(-c2cccc(CCC(=O)O)n2)c1 [Example 2.35, 3-(6-{3-methyl-5-[(4-methylpyrimidin-2-yl)amino]phenyl}pyridin-2-yl)propanoic acid] | 100 to 1000 nM
6 | CCOC(=O)CCc1ccc(-c2cc(C)cc(Nc3nccc(C)n3)c2)nc1 [Example 2.36, ethyl 3-(6-{3-methyl-5-[(4-methylpyrimidin-2-yl)amino]phenyl}pyridin-3-yl)propanoate] | 1000 to 10000 nM
7 | CCOC(=O)CCc1ccc(-c2cc(C)cc(Nc3nccc(C4CC4)n3)c2)nc1 [Example 2.37, ethyl 3-(6-{3-[(4-cyclopropylpyrimidin-2-yl)amino]-5-methylphenyl}pyridin-3-yl)propanoate] | 100 to 1000 nM
8 | CCOC(=O)CCc1cccc(-c2cc(C)cc(Nc3nccc(C4CC4)n3)c2)n1 [Example 2.38, ethyl 3-(6-{3-[(4-cyclopropylpyrimidin-2-yl)amino]-5-methylphenyl}pyridin-2-yl)propanoate] | 100 to 1000 nM
9 | CCOC(=O)CCc1ccnc(-c2cc(C)cc(Nc3nccc(C4CC4)n3)c2)c1 [Example 2.39, ethyl 3-(2-{3-[(4-cyclopropylpyrimidin-2-yl)amino]-5-methylphenyl}pyridin-4-yl)propanoate] | 100 to 1000 nM
10 | COc1ccc(-c2cccc(Nc3nccc(C(F)(F)F)n3)c2)cn1 [Example 2.41, N-[3-(6-methoxypyridin-3-yl)phenyl]-4-(trifluoromethyl)pyrimidin-2-amine] | 100 to 1000 nM
11 | OC(c1ccccc1)c1ccc(-c2cccc(Nc3nccc(C(F)(F)F)n3)c2)cn1 (stereo not drawn) [Example 2.42, phenyl[5-(3-{[4-(trifluoromethyl)pyrimidin-2-yl]amino}phenyl)pyridin-2-yl]methanol] | 100 to 1000 nM
12 | Oc1ccc(-c2cccc(Nc3nccc(C(F)(F)F)n3)c2)cn1 [Example 2.43, 5-(3-{[4-(trifluoromethyl)pyrimidin-2-yl]amino}phenyl)pyridin-2-ol] | 100 to 1000 nM
13 | CNCc1ccc(-c2cc(C)cc(Nc3nccc(C(F)(F)F)n3)c2)cn1 [Example 2.49, N-(3-methyl-5-{6-[(methylamino)methyl]pyridin-3-yl}phenyl)-4-(trifluoromethyl)pyrimidin-2-amine] | < 100 nM
14 | Cc1cc(Nc2nccc(C(F)(F)F)n2)cc(-c2cnc(O)c(N)c2C)c1 [Example 2.51, 3-amino-4-methyl-5-(3-methyl-5-{[4-(trifluoromethyl)pyrimidin-2-yl]amino}phenyl)pyridin-2-ol] | 100 to 1000 nM
15 | Cc1cc(Nc2nccc(C(F)(F)F)n2)cc(-c2cnc3c(c2)OCCN3)c1 [Example 2.52, N-[3-(3,4-dihydro-2H-pyrido[3,2-b][1,4]oxazin-7-yl)-5-methylphenyl]-4-(trifluoromethyl)pyrimidin-2-amine] | < 100 nM
16 | COC(=O)c1cncc(-c2cc(C)cc(Nc3nccc(C(F)(F)F)n3)c2)c1 [Example 2.53, methyl 5-(3-methyl-5-{[4-(trifluoromethyl)pyrimidin-2-yl]amino}phenyl)pyridine-3-carboxylate] | 100 to 1000 nM
17 | Cc1cc(Nc2nccc(C(F)(F)F)n2)cc(-c2cncc(C(F)(F)F)c2)c1 [Example 2.54, N-{3-methyl-5-[5-(trifluoromethyl)pyridin-3-yl]phenyl}-4-(trifluoromethyl)pyrimidin-2-amine] | 100 to 1000 nM
18 | Cc1cc(Nc2nccc(C(F)(F)F)n2)cc(-c2cnc3c(c2)OCCN3C)c1 [Example 2.55, N-[3-methyl-5-(4-methyl-3,4-dihydro-2H-pyrido[3,2-b][1,4]oxazin-7-yl)phenyl]-4-(trifluoromethyl)pyrimidin-2-amine] | < 100 nM
19 | Cc1cc(Nc2nccc(C(F)(F)F)n2)cc(-c2cncc(C#N)c2)c1 [Example 2.56, 5-(3-methyl-5-{[4-(trifluoromethyl)pyrimidin-2-yl]amino}phenyl)pyridine-3-carbonitrile] | < 100 nM
20 | Cc1cc(Nc2nccc(C(F)(F)F)n2)cc(-c2cccnc2)c1 [Example 2.57, N-(3-methyl-5-pyridin-3-ylphenyl)-4-(trifluoromethyl)pyrimidin-2-amine] | < 100 nM
21 | COc1cncc(-c2cc(C)cc(Nc3nccc(C(F)(F)F)n3)c2)c1 [Example 2.58, N-[3-(5-methoxypyridin-3-yl)-5-methylphenyl]-4-(trifluoromethyl)pyrimidin-2-amine] | < 100 nM
22 | Cc1cc(Nc2nccc(C(F)(F)F)n2)cc(-c2ccc(N3CCCNCC3)nc2)c1 [Example 2.59, N-{3-[6-(1,4-diazepan-1-yl)pyridin-3-yl]-5-methylphenyl}-4-(trifluoromethyl)pyrimidin-2-amine] | < 100 nM
23 | Cc1cc(Nc2nccc(C(F)(F)F)n2)cc(-c2ccc(OC3CCOCC3)nc2)c1 [Example 2.61, N-{3-methyl-5-[6-(tetrahydro-2H-pyran-4-yloxy)pyridin-3-yl]phenyl}-4-(trifluoromethyl)pyrimidin-2-amine] | 100 to 1000 nM
24 | Cc1cc(Nc2nccc(C(F)(F)F)n2)cc(-c2ccc(NS(=O)(=O)N3CCCCC3)nc2)c1 [Example 2.62, N-[5-(3-methyl-5-{[4-(trifluoromethyl)pyrimidin-2-yl]amino}phenyl)pyridin-2-yl]piperidine-1-sulfonamide] | 100 to 1000 nM

Continued, values first:

Row | IC50 | SMILES
25 | < 100 nM | COc1ccnc(Nc2cc(C)cc(-c3cc(CCC(=O)O)ccn3)c2)n1 [Example 2.21, 3-(2-{3-[(4-methoxypyrimidin-2-yl)amino]-5-methylphenyl}pyridin-4-yl)propanoic acid]
26 | < 100 nM | Cc1cc(Nc2nccc(C(F)(F)F)n2)cc(-c2cc(CCC(=O)O)ccn2)c1 [Example 2.22, 3-[2-(3-methyl-5-{[4-(trifluoromethyl)pyrimidin-2-yl]amino}phenyl)pyridin-4-yl]propanoic acid]
27 | < 100 nM | Cc1cc(Nc2nccc(C)n2)cc(-c2cc(CCC(=O)O)ccn2)c1 [Example 2.23, 3-(2-{3-methyl-5-[(4-methylpyrimidin-2-yl)amino]phenyl}pyridin-4-yl)propanoic acid]
28 | < 100 nM | Cc1cc(Nc2nccc(C3CC3)n2)cc(-c2cc(CCC(=O)O)ccn2)c1 [Example 2.24, 3-(2-{3-[(4-cyclopropylpyrimidin-2-yl)amino]-5-methylphenyl}pyridin-4-yl)propanoic acid]
29 | < 100 nM | Cc1cc(Nc2nccc(C(F)(F)F)n2)cc(-c2ccc(CCC(=O)O)cn2)c1 [Example 2.30, 3-[6-(3-methyl-5-{[4-(trifluoromethyl)pyrimidin-2-yl]amino}phenyl)pyridin-3-yl]propanoic acid]
30 | < 100 nM | Cc1cc(Nc2nccc(C(F)(F)F)n2)cc(-c2cccc(CCC(=O)O)n2)c1 [Example 2.31, 3-[6-(3-methyl-5-{[4-(trifluoromethyl)pyrimidin-2-yl]amino}phenyl)pyridin-2-yl]propanoic acid]
31 | < 100 nM | Cc1cc(Nc2nccc(C3CC3)n2)cc(-c2ccc(CCC(=O)O)cn2)c1 [Example 2.40, 3-(6-{3-[(4-cyclopropylpyrimidin-2-yl)amino]-5-methylphenyl}pyridin-3-yl)propanoic acid]
32 | < 100 nM | O=c1[nH]c2cc(-c3cccc(Nc4nccc(C(F)(F)F)n4)c3)cnc2[nH]1 [Example 2.44, 6-(3-{[4-(trifluoromethyl)pyrimidin-2-yl]amino}phenyl)-1,3-dihydro-2H-imidazo[4,5-b]pyridin-2-one]
33 | < 100 nM | Cc1cc(Nc2nccc(C(F)(F)F)n2)cc(-c2cccnc2F)c1 [Example 2.45, N-[3-(2-fluoropyridin-3-yl)-5-methylphenyl]-4-(trifluoromethyl)pyrimidin-2-amine]
34 | < 100 nM | Cc1cc(Nc2nccc(C(F)(F)F)n2)cc(-c2ccc(C#N)nc2)c1 [Example 2.46, 5-(3-methyl-5-{[4-(trifluoromethyl)pyrimidin-2-yl]amino}phenyl)pyridine-2-carbonitrile]
35 | < 100 nM | Cc1cc(Nc2nccc(C(F)(F)F)n2)cc(-c2cnc3c(c2)CCN3)c1 [Example 2.47, N-[3-(2,3-dihydro-1H-pyrrolo[2,3-b]pyridin-5-yl)-5-methylphenyl]-4-(trifluoromethyl)pyrimidin-2-amine]
36 | < 100 nM | CC(=O)c1cncc(-c2cc(C)cc(Nc3nccc(C(F)(F)F)n3)c2)c1 [Example 2.48, 1-[5-(3-methyl-5-{[4-(trifluoromethyl)pyrimidin-2-yl]amino}phenyl)pyridin-3-yl]ethanone]
